Key:
S. aureus ATCC 25923 = assay: Minimum inhibitory concentration (MIC), broth microdilution; type: cell-based, Staphylococcus aureus; conditions: 37° C., 18-20 h
Protocol: (§1) Staphylococcus aureus (ATCC 25923) and Pseudomonas aeruginosa (ATCC 47085 (PA01)) were grown from fresh colonies in trypticase soy broth (TSB) and incubated overnight at 37° C. Fungal cultures, Candida albicans (ATCC 90028) and Candida auris (CDC 0382, 0384, 0387, and 0389), were grown overnight in sabouraud dextrose broth (SDB) or Roswell Park Memorial Institute medium (RPMI). Cultures of bacteria and fungi were centrifuged, and pellets were washed three times with phosphate buffered saline (PBS) and further resuspended in fresh PBS. Bacterial cultures were diluted in TSB and fungal cultures were diluted in SDB or RPMI to […] or 10^6 CFU/mL (optical density (OD) readings at 600 nm).
(§2) Minimum inhibitory concentrations (MICs) were measured using the broth microdilution protocol described by the Clinical and Laboratory Standards Institute. […] Aliquots (100 μL) of a prepared inoculum (10^6 CFU/mL for bacteria and […] CFU/mL for fungi) were added, and plates were incubated at 37° C. for 18-20 h. Bacterial or fungal growth was visually observed to determine the MICs. Negative and positive controls were included for each set of MIC measurements. For studies with pluronic, the surfactant was added at 4% and 5% to the initial inocula in each experiment. Measurements were performed in triplicate for all susceptibility tests.

P. aeruginosa ATCC 47085 = assay: as above; type: cell-based, Pseudomonas aeruginosa; conditions: 37° C., 18-20 h
Protocol: as §1, §2

C. auris CDC 382 = assay: as above; type: cell-based, Candida auris; conditions: 37° C., 18-20 h
Protocol: as §1, §2

C. auris CDC 384 = assay: as above; type: cell-based, Candida auris; conditions: 37° C., 18-20 h
Protocol: as §1, §2

C. auris CDC 387 = assay: as above; type: cell-based, Candida auris; conditions: 37° C., 18-20 h
Protocol: as §1, §2

C. auris CDC 389 = assay: as above; type: cell-based, Candida auris; conditions: 37° C., 18-20 h
Protocol: as §1, §2

C. auris CDC 382 biofilm = assay: Minimum biofilm eradication concentration (MBEC); type: cell-based, Candida auris; conditions: 48 h biofilm, 24 h treatment
Protocol: as §1
(§3) Inocula (10^6 CFU/mL) of bacterial and fungal strains (P. aeruginosa, S. aureus, C. albicans, and C. auris) were incubated at 37° C. for 48 h in 1 mL of TSB or SDB in 96-well plates. Following incubation, the growth medium was gently removed, and wells were washed three times with sterile PBS. […] Wells, including well edges, were scraped thoroughly with a plastic spatula. Well contents were removed in 1 mL of neutralizing broth (Dey-Engley, Sigma-Aldrich) and placed in a sonicating water bath (Fisher Scientific FS60, 42 kHz, 100 W, Pittsburgh, PA, USA) to disrupt biofilms. After 15 min, the resulting samples were serially diluted, and bacterial samples were plated on TSA while fungal samples were plated on SDA. After 24 h or 48 h of incubation at 37° C., colonies were counted and MBECs were determined. The minimum biofilm eradication concentration (MBEC) was defined as the lowest concentration of antibiotic that prevented bacterial regrowth.

C. auris CDC 384 biofilm = assay: Minimum biofilm eradication concentration (MBEC); type: cell-based, Candida auris; conditions: 48 h biofilm, 24 h treatment
Protocol: as §1, §3

C. auris CDC 387 biofilm = assay: Minimum biofilm eradication concentration (MBEC); type: cell-based, Candida auris; conditions: 48 h biofilm, 24 h treatment
Protocol: as §1, §3

C. auris CDC 389 biofilm = assay: Minimum biofilm eradication concentration (MBEC); type: cell-based, Candida auris; conditions: 48 h biofilm, 24 h treatment
Protocol: as §1, §3

[1] = test system: C. albicans ATCC 90028 biofilm; assay: Minimum biofilm eradication concentration (MBEC); type: cell-based, Candida albicans; conditions: 48 h biofilm, 24 h treatment
Protocol: as §1
as §3, with “After 15 min, the resulting samples were serially diluted, and bacterial samples were plated on TSA while fungal samples were plated on SDA.” left out, “The minimum biofilm eradication concentration (MBEC) was defined as the lowest concentration of antibiotic that prevented bacterial regrowth.” left out

[2] = test system: biofilms of S. aureus (ATCC 25923), P. aeruginosa (ATCC 47085), C. albicans (ATCC 90028), C. auris (CDC 384); assay: Antibiofilm colorimetric (XTT) assay, percent survival (FIG. 3); type: cell-based; conditions: 24 h, p<0.05 relative to controls
Protocol: Biofilm formation by selected bacterial and fungal strains was quantified by measuring metabolic activity within biofilms using 2,3-bis-(2-methoxy-4-nitro-5-sulfophenyl)-2H-tetrazolium-5-carboxanilide (XTT). Biofilms were formed in 96-well plates and incubated for 48 h at 37° C. […] After incubation, the wells were carefully washed with PBS. A solution of 10 mM menadione in 100% acetone was added to an XTT solution (0.5 mg/mL) and mixed. An aliquot of the XTT/menadione solution (100 μL) was added to each well. Each plate was then wrapped in aluminum foil and incubated for 2-3 h at 37° C. To prepare to read the optical density, aliquots of the supernatant (70 μL) were removed from each well. Using a microtiter plate reader, colorimetric changes were measured at 490 nm. […] (control). To corroborate the antibiofilm data from counting bacterial and fungal colonies, a colorimetric assay was performed to quantify biofilms remaining on surfaces after treatment. Results were normalized to untreated controls. […] Antibiofilm results determined through colorimetric (XTT) assay represented as percent survival. […]

S. aureus = assay: Kinetics of bactericidal activity; type: cell-based, Staphylococcus aureus; conditions: CSA-131 100 μg/mL, pluronic 4%, data not shown
Protocol: Cultures were incubated at 37° C. At 5, 15, 30, 60, and 120 min, aliquots were removed from each well and added to neutralizing buffer to ensure that no further antibacterial activity occurred. These samples were then serially diluted and plated on TSA or SDA. Cultures were incubated at 37° C. for 24 h or 48 h, and colonies were counted and recorded.
FIG. 4 is a line graph comparing the kinetic antibacterial activity of CSA compositions with micelles compared to a control without CSA. Inocula of just over 10^6 CFU/mL were reduced to the detection limit within 15 min. […] Detection limit was two logs.

CCCCCCCCCCCCNCCC[C@@H](C)[C@H]1CC[C@H]2[C@@H]3[C@H](OCCCN)C[C@@H]4C[C@H](OCCCN)CC[C@]4(C)[C@H]3C[C@H](OCCCN)[C@]12C.Cl.Cl.Cl.Cl [CSA-131]
MIC (S. aureus ATCC 25923): 1 µg/mL | MIC (P. aeruginosa ATCC 47085): 2 µg/mL | MIC (C. auris CDC 382): 0.5 µg/mL | MIC (C. auris CDC 384): 0.5 µg/mL | MIC (C. auris CDC 387): 0.5 µg/mL | MIC (C. auris CDC 389): 0.5 µg/mL | MBEC (C. auris CDC 382 biofilm): 82 µg/mL | MBEC (C. auris CDC 384 biofilm): 48 µg/mL | MBEC (C. auris CDC 387 biofilm): 64 µg/mL | MBEC (C. auris CDC 389 biofilm): 48 µg/mL | MBEC [1]: 48 µg/mL | Biofilm remaining after treatment (XTT, percent survival vs untreated control) ([2]; CSA-131 100 μg/mL alone): Significant decreases in biofilm | Biofilm remaining after treatment (XTT, percent survival vs untreated control) ([2]; CSA-131 100 μg/mL with pluronic, difference to CSA-131 alone not significant): Significant decreases in biofilm | Difference in kinetic activity of the ceragenin alone and with pluronic (S. aureus): no significant differences

From patent US12070467B2, “Method of treating ciliated tissue using CSA micelles” (Brigham Young University, priority 2018, dated 2024)
